Here are results for 14 compounds from US8415379B2, “Pyridines” (Hoffmann-La Roche Inc., priority 2009, dated 2013).

The target of this assay is T1, GABA A α5 (human receptors of composition α5β3γ2) (Homo sapiens, UniProt P18507+P31644).
T1 construct: expressed in transfected cells; host or cells: HEK293 cells, transiently transfected; membrane homogenates used
The assay is described as follows: [3H]flumazenil competition binding assay, human GABA A α5β3γ2 receptors in HEK293 cells. As to conditions: displacement of 0.5 nM [3H]flumazenil, HEK293 membranes, 1 hour at 4° C., means of two determinations, read-out: hKi GABA A α5. As to the method:
The affinity of compounds at GABA A receptor subtypes was measured by competition for [^3H]flumazenil (85 Ci/mmol; Roche) binding to HEK293 cells expressing rat (stably transfected) or human (transiently transfected) receptors of composition α1β3γ2, α2β3γ2, α3β3γ2 and α5β3γ2.
Cell pellets were suspended in Krebs-tris buffer (4.8 mM KCl, 1.2 mM CaCl2, 1.2 mM MgCl2, 120 mM NaCl, 15 mM Tris; pH 7.5; binding assay buffer), homogenized by polytron for ca. 20 sec on ice and centrifuged for 60 min at 4° C. (50000 g; Sorvall, rotor: SM24=20000 rpm). The cell pellets were re-suspended in Krebs-tris buffer and homogenized by polytron for ca. 15 sec on ice. Protein was measured (Bradford method, Bio-Rad) and aliquots of 1 mL were prepared and stored at −80° C.
Radioligand binding assays were carried out in a volume of […] (96-well plates) which contained […] of cell membranes, [^3H]flumazenil at a concentration of 1 nM for α1, α2 and α3 subunits and 0.5 nM for α5 subunits and the test compound in the range of […]. Nonspecific binding was defined by 10^−5 M diazepam and typically represented less than 5% of the total binding. Assays were incubated to equilibrium for 1 hour at 4° C. and harvested onto GF/C uni-filters (Packard) by filtration using a Packard harvester and washing with ice-cold wash buffer (50 mM Tris; pH 7.5). After drying, filter-retained radioactivity was detected by liquid scintillation counting. Ki values were calculated using Excel-Fit (Microsoft) and are the means of two determinations.
As for `Cc1onc(-c2ccccn2)c1COc1ccc(C(=O)NC(C)(C)CO)nc1` [Example 8, 5-(5-Methyl-3-pyridin-2-yl-isoxazol-4-ylmethoxy)-pyridine-2-carboxylic acid (2-hydroxy-1,1-dimethyl-ethyl)-amide], the Ki came out at 22.3 nM.

Consider `Cc1onc(-c2ccccn2)c1COc1ccc(C(=O)N2CCS(=O)(=O)CC2)nc1` [Example 10, (1,1-Dioxo-1,6-thiomorpholin-4-yl)-[5-(5-methyl-3-pyridin-2-yl-isoxazol-4-ylmethoxy)-pyridin-2-yl]-methanone], for which the Ki came to 34.2 nM.

As for `Cc1onc(-c2ccc(F)cn2)c1COc1ccc(C(=O)NC(C)(C)CO)nc1` [Example 24, 5-[3-(5-Fluoro-pyridin-2-yl)-5-methyl-isoxazol-4-ylmethoxy]-pyridine-2-carboxylic acid (2-hydroxy-1,1-dimethyl-ethyl)-amide], the Ki is 17.5 nM.

With `O=C(NN1CCOCC1)c1ccc(OCc2c(-c3ccc(F)cc3)noc2CO)cn1` [Example 39, 5-[3-(4-Fluoro-phenyl)-5-hydroxymethyl-isoxazol-4-ylmethoxy]-pyridine-2-carboxylic acid morpholin-4-ylamide], the Ki is 0.8 nM.

For `Cc1onc(-c2ccccn2)c1COc1ccc(C(=O)Nc2cnn(C)c2)nc1` [Example 19, 5-(5-Methyl-3-pyridin-2-yl-isoxazol-4-ylmethoxy)-pyridine-2-carboxylic acid (1-methyl-1H-pyrazol-4-yl)-amide], the Ki was 1.7 nM.

Take `Cc1onc(-c2ccccn2)c1COc1ccc(C(=O)NN2CCOCC2)nc1` [Example 9, 5-(5-Methyl-3-pyridin-2-yl-isoxazol-4-ylmethoxy)-pyridine-2-carboxylic acid morpholin-4-ylamide]: the Ki was determined as 4.4 nM.

Regarding `Cc1onc(-c2ccccc2)c1COc1ccc(C(=O)NC2CCOC2)nc1` (racemic) [Example 3, Rac-5-(5-Methyl-3-phenyl-isoxazol-4-ylmethoxy)-pyridine-2-carboxylic acid (tetrahydro-furan-3-yl)-amide], the Ki is 13.9 nM.

As to `O=C(NC1CCOCC1)c1ccc(OCc2c(-c3ccc(F)cc3)noc2CO)cn1` [Example 30, 5-[3-(4-Fluoro-phenyl)-5-hydroxymethyl-isoxazol-4-ylmethoxy]-pyridine-2-carboxylic acid (tetrahydro-pyran-4-yl)-amide], the Ki turned out to be 30.3 nM.

As to `Cc1onc(-c2ccccn2)c1COc1ccc(C(=O)N2CCSCC2)nc1` [Example 17, [5-(5-Methyl-3-pyridin-2-yl-isoxazol-4-ylmethoxy)-pyridin-2-yl]-thiomorpholin-4-yl-methanone], the Ki came out at 32.9 nM.

As to `Cc1onc(-c2ccccn2)c1COc1ccc(C(=O)NC2CC2)nc1` [Example 11, 5-(5-Methyl-3-pyridin-2-yl-isoxazol-4-ylmethoxy)-pyridine-2-carboxylic acid cyclopropyl amide], the Ki came to 3.5 nM.

Take `CC(C)(C)NC(=O)c1ccc(OCc2c(-c3ccc(F)cc3)noc2CO)cn1` [Example 36, 5-[3-(4-Fluoro-phenyl)-5-hydroxymethyl-isoxazol-4-ylmethoxy]-pyridine-2-carboxylic acid tert-butylamide]: the Ki came to 74.2 nM.

For the compound `Cc1onc(-c2ccccn2)c1COc1ccc(C(=O)NC(C)C)nc1` [Example 7, 5-(5-Methyl-3-pyridin-2-yl-isoxazol-4-ylmethoxy)-pyridine-2-carboxylic acid isopropyl-amide], the Ki came out at 3.2 nM.

Take `Cc1onc(-c2ccccc2)c1COc1ccc(C(=O)NC(C)C)nc1` [Example 2, 5-(5-Methyl-3-phenyl-isoxazol-4-ylmethoxy)-pyridine-2-carboxylic acid isopropylamide]: the Ki worked out at 8.9 nM.

With `Cc1onc(-c2ccccn2)c1COc1ccc(C(=O)NC2CCOCC2)nc1` [Example 6, 5-(5-Methyl-3-pyridin-2-yl-isoxazol-4-ylmethoxy)-pyridine-2-carboxylic acid (tetrahydro-pyran-4-yl)-amide], the Ki worked out at 4.8 nM.
